Literature values, collected in patent US20130317456A1, “Transdermal Delivery Systems” (Durect Corporation, priority 2006, published 2013).

Details: octanol/water partition coefficient

Structure (SMILES)	log P
Cc1cccc(C)c1NC(=O)C1CCCCN1C (centres unmarked) [Mepivacaine]	around 1.95
CCCN1CCCC[C@H]1C(=O)Nc1c(C)cccc1C [Ropivacaine]	around 2.9
